Measurements from PubChem BioAssay (NCI).
Where “and” joins values, the source holds several entries; their conditions need not be identical. Equal entries are not always repeated.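 Step 1: Grow cells in 96-well plates. Step 2: Expose to compound for 48 hours at 5 concentrations. Step 3: Interpolate endpoints linearly; if unreached, use highest concentration. GI50: concentration for 50% inhibition of growth. The concentration for full growth arrest is given as TGI.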

Key:
Assay in all cases: NCI tumour cell line growth inhibition, 48 h
SK-OV-3 ovarian = tested on: SK-OV-3 ovarian
NCI-H226 lung = tested on: NCI-H226 lung
UACC-62 melanoma = tested on: UACC-62 melanoma
EKVX NSCLC = tested on: EKVX NSCLC
COLO 205 colon = tested on: COLO 205 colon
HOP-92 NSCLC = tested on: HOP-92 NSCLC
OVCAR-4 ovarian = tested on: OVCAR-4 ovarian
K-562 leukemia = tested on: K-562 leukemia
ACHN renal = tested on: ACHN renal
A549 NSCLC = tested on: A549 NSCLC

Structure (SMILES) | GI50 (SK-OV-3 ovarian) | TGI (SK-OV-3 ovarian) | GI50 (NCI-H226 lung) | TGI (NCI-H226 lung) | GI50 (UACC-62 melanoma) | TGI (UACC-62 melanoma) | GI50 (EKVX NSCLC) [µM] | TGI (EKVX NSCLC) [µM] | GI50 (COLO 205 colon) | TGI (COLO 205 colon) | GI50 (HOP-92 NSCLC) | TGI (HOP-92 NSCLC) | GI50 (OVCAR-4 ovarian) | TGI (OVCAR-4 ovarian) | GI50 (K-562 leukemia) | TGI (K-562 leukemia) | GI50 (ACHN renal) | TGI (ACHN renal) | GI50 (A549 NSCLC) | TGI (A549 NSCLC)
Cc1[nH]nc(C(=O)n2nc(N)c3ccccc32)c1[N+](=O)[O-] | > 100 µM | > 100 µM | > 100 µM | > 100 µM | > 100 µM | > 100 µM | > 100 | > 100 | > 100 µM | > 100 µM | 56.4 µM | > 100 µM | > 100 µM | > 100 µM | > 100 µM | > 100 µM | > 100 µM | > 100 µM | > 100 µM | > 100 µM
COc1ccc(C2=NN(C=O)C(c3cccc(Nc4ccnc5cc(Cl)ccc45)c3)C2)cc1 (stereo not given) | 3.33 µM | 23.3 µM | 3.13 µM | > 100 µM | 2.41 µM | 20.6 µM | 2.8 | > 100 | 2.4 µM | 9.88 µM | 3.41 µM | > 100 µM | 1.54 µM | 31.8 µM | 0.511 µM | 11.3 µM | 4.59 µM | 62.7 µM | 4.63 µM | > 100 µM
COc1ccc2cc(-c3c(-c4ccncc4)nc(-c4ccc(S(C)(=O)=O)cc4C)n3C)ccc2c1 | 6.5 µM | 16.7 µM | 4.17 µM | > 20.4 µM | 7.95 µM | > 25 µM | 7.45 | > 25 | 8.25 µM | > 20.1 µM | 5.16 µM | 24.4 µM | 5.3 µM | 22 µM | 6.88 µM | > 25 µM | 8.36 µM | > 25 µM | 9.04 µM | > 25 µM
COc1ccc(-c2oc3c(OC)c(OC)c(OC)c(OC)c3c(=O)c2OC)cc1OC |  | > 100 µM |  | > 100 µM |  | > 100 µM |  | > 100 |  | > 100 µM |  | 0.0897 µM |  | > 100 µM |  | > 100 µM |  | > 100 µM |  | > 100 µM
O=C1c2cc(Cl)ccc2-c2c1c1ccc([N+](=O)[O-])cc1c(=O)n2CCCBr | 7.79 µM | > 100 µM | 11.5 µM | > 100 µM | 3.45 µM | 39.8 µM | > 100 | > 100 | 3.37 µM | > 100 µM | 0.539 µM | 8.98 µM | 78.2 µM | > 100 µM | 4.46 µM | > 100 µM | 2.42 µM | 7.25 µM | 5.85 µM | > 100 µM
Cc1cc2c(cc1Cl)SC1=NN(C)C(N(C)C)N1S2(=O)=O (stereo not given) | > 100 µM | > 100 µM | > 100 µM | > 100 µM | > 100 µM | > 100 µM | > 100 | > 100 | > 100 µM | > 100 µM | 55 µM | > 100 µM | > 100 µM | > 100 µM | > 100 µM | > 100 µM | > 100 µM | > 100 µM | > 100 µM | > 100 µM
CC(CCC(=O)O)C(=O)O (stereo not given) |  | > 100 µM |  | > 100 µM |  | > 100 µM |  | > 100 |  | > 100 µM |  | > 100 µM |  | > 100 µM |  | > 100 µM |  | > 100 µM |  | > 100 µM
CCn1c2ccc(O)cc2c2c(C)c3c[n+](C)ccc3c(C)c21 | 7.41 µM | 83.8 µM | 0.896 µM | 27.6 µM | 2.05 µM | 22.8 µM | 10.9 | > 100 | 3.03 µM | 17.3 µM | 2.07 µM | 30.3 µM | 5.83 µM | 47.1 µM | 6.03 µM | > 100 µM | 8.85 µM | > 100 µM | 3.81 µM | > 100 µM
O=C(O)C1CCCCC1C(=O)O.[NH-]C1CCC1.[NH2-].[Pt+2] (stereo not given) | 48.7 µM | > 100 µM | 18.9 µM | 42.8 µM | 11.4 µM | 23.6 µM | 26.5 | 84.8 | 10.3 µM | 24.6 µM | 19.4 µM | 44 µM | 15.2 µM | 29.7 µM | 29.6 µM | > 100 µM | 16.4 µM | 31.3 µM | 30.7 µM | > 100 µM
O=C(O)c1ccc2c(c1)CCCC(c1ccc(Cl)cc1Cl)=C2c1ccc(O[C@H]2CCN(CCCF)C2)cc1 | 16.7 µM | 30.8 µM | 10.4 µM | 38.8 µM | 12.7 µM | 26.3 µM | 10.7 | 25.3 | 14.9 µM | 33.7 µM | 11.3 µM | 25.1 µM | 12 µM | 30 µM | 8.05 µM | 23.1 µM | 11.7 µM | 24.3 µM | 6.7 µM | 24.1 µM
COc1cc2ncnc(Nc3ccc(F)c(Cl)c3)c2cc1NC(=O)/C=C/CN1CCCCC1 | 0.0171 µM and 0.00478 µM | 2.3 µM and 2.23 µM | 2.91 µM and 4.52 µM | 19.3 µM and > 10 µM | 1.61 µM and 1.73 µM | 3.02 µM and 3.23 µM | 0.00274 | > 10 | 1.68 µM and 2 µM | 3.43 µM and 4.18 µM | 0.0672 µM and 0.643 µM | 2.43 µM and 5.63 µM | 1.16 µM and 1.79 µM | 4.86 µM and 7.17 µM | 1.65 µM and 2.05 µM | 5.12 µM and > 8.09 µM | < 0.01 µM and 0.00256 µM | 1.76 µM and 1.48 µM | 1.27 µM and 1.65 µM | 3.71 µM and > 8.03 µM
